Source: PMC10562414, “GLP-1R signaling neighborhoods associate with the susceptibility to adverse drug reactions of incretin mimetics” (Nature Communications, 2023)

Assays:
[1] = target: GLP-1R (Homo sapiens, UniProt P43220); assay: ebBRET pathway activation (effector membrane translocation, 15 pathways) at the plasma membrane (rGFP-CAAX); type: cell-based; conditions: plasma membrane rGFP-CAAX, HEK293, agonist incubation 0 min, normalized to the highest responding drug, F test P < 0.00625, n=3-6
[2] = Adverse drug event analysis (FAERS, log likelihood ratio); conditions: for proportion, Abdominal pain: ADR_TERM Abdominal pain; for proportion, Eructation: ADR_TERM Eructation; for proportion, Nausea: ADR_TERM Nausea; for proportion, Pancreatic disease: ADR_TERM Pancreatic disease; for proportion, Vomiting: ADR_TERM Vomiting; for logLR: Fig. 6d
[3] = ref [56], [57], cited from earlier work
[4] = Supplementary Fig. 21, first group
[5] = Supplementary Fig. 21, fourth group (r25-r28)
[6] = Supplementary Fig. 21, third group (r21-r24)
[7] = SOC Endocrine disorders, FAERS via Open Targets
[8] = SOC Gastrointestinal disorders, FAERS via Open Targets
[9] = SOC Investigations, FAERS via Open Targets
[10] = SOC Metabolism and nutrition disorders, FAERS via Open Targets

GLP-1R, sequence (P43220 24-463): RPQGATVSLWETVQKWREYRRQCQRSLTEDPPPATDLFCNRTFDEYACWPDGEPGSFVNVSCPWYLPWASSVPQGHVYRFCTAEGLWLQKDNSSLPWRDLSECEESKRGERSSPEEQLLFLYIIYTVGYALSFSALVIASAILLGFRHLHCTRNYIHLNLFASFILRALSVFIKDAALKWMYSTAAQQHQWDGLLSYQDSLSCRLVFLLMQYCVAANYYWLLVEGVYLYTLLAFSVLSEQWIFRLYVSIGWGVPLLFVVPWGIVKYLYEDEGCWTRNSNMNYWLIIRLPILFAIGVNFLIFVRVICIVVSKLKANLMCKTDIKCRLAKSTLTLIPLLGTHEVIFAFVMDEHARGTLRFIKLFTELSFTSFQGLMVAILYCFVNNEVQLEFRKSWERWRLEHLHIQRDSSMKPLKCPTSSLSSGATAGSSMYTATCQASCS

For `CC[C@H](C)[C@H](NC(=O)[C@H](Cc1ccccc1)NC(=O)[C@H](CCC(=O)O)NC(=O)[C@H](CCCCN)NC(=O)[C@H](C)NC(=O)[C@H](C)NC(=O)[C@H](CCC(N)=O)NC(=O)CNC(=O)[C@H](CCC(=O)O)NC(=O)[C@H](CC(C)C)NC(=O)[C@H](Cc1ccc(O)cc1)NC(=O)[C@H](CO)NC(=O)[C@H](CO)NC(=O)[C@@H](NC(=O)[C@H](CC(=O)O)NC(=O)[C@H](CO)NC(=O)[C@@H](NC(=O)[C@H](Cc1ccccc1)NC(=O)[C@@H](NC(=O)CNC(=O)[C@H](CCC(=O)O)NC(=O)[C@H](C)NC(=O)[C@H](Cc1c[nH]cn1)NC(=O)[C@H](CCCNC(=N)N)NC(=O)[C@H](CCC(=O)O)NC(=O)[C@H](Cc1ccccc1)NC(=O)[C@H](CCC(=O)O)NC(=O)[C@H](CC(=O)O)NC(=O)[C@@H](N)Cc1c[nH]cn1)[C@@H](C)O)[C@@H](C)O)C(C)C)C(=O)N[C@@H](C)C(=O)N[C@@H](Cc1c[nH]c2ccccc12)C(=O)N[C@@H](CC(C)C)C(=O)N[C@H](C(=O)N[C@@H](CCCCN)C(=O)NCC(=O)N[C@@H](CCCNC(=N)N)C(=O)NCC(=O)O)C(C)C` [GLP-1 (1-37)], the “Efficacy (normalized), GRK2/Gβγ” value ([1]; GRK2-D110A-RlucII) was 0, the “Efficacy (normalized), Gα13” value ([1]; PDZRhoGEF-RlucII) was 0 and the “Efficacy (normalized), Gαi1” value ([1]; Rap1Gap-RlucII) was 0. For the same molecule, the “Efficacy (normalized), Gαi2” value ([1]; Rap1Gap-RlucII) was 0, the “Efficacy (normalized), Gαi3” value ([1]; Rap1Gap-RlucII) was 0 and the “Efficacy (normalized), GαoA” value ([1]; Rap1Gap-RlucII) was 0. The “Efficacy (normalized), GαoB” value ([1]; Rap1Gap-RlucII) was 0, the “Efficacy (normalized), Gαz” value ([1]; Rap1Gap-RlucII) was 0 and the “Efficacy (normalized), Gαs” value ([1]; Rluc8-mGs) was 0. The “Efficacy (normalized), Gα11” value ([1]; p63RhoGEF-RlucII) was 0, the “Efficacy (normalized), Gα14” value ([1]; p63RhoGEF-RlucII) was 0 and the “Efficacy (normalized), Gα15” value ([1]; p63RhoGEF-RlucII) was 0. The “Efficacy (normalized), Gαq” value ([1]; p63RhoGEF-RlucII) was 0 and the “Efficacy (normalized), βARR2” value ([1]; β-arrestin-2-RlucII) was 0.

In the case of `CCCCCCCCCCCCCCCC(=O)N[C@@H](CCC(=O)NCCCC[C@H](NC(=O)[C@H](C)NC(=O)[C@H](C)NC(=O)[C@H](CCC(N)=O)NC(=O)CNC(=O)[C@H](CCC(=O)O)NC(=O)[C@H](CC(C)C)NC(=O)[C@H](Cc1ccc(O)cc1)NC(=O)[C@H](CO)NC(=O)[C@H](CO)NC(=O)[C@@H](NC(=O)[C@H](CC(=O)O)NC(=O)[C@H](CO)NC(=O)[C@@H](NC(=O)[C@H](Cc1ccccc1)NC(=O)[C@@H](NC(=O)CNC(=O)[C@H](CCC(=O)O)NC(=O)[C@H](C)NC(=O)[C@@H](N)Cc1cnc[nH]1)[C@@H](C)O)[C@@H](C)O)C(C)C)C(=O)N[C@@H](CCC(=O)O)C(=O)N[C@@H](Cc1ccccc1)C(=O)N[C@H](C(=O)N[C@@H](C)C(=O)N[C@@H](Cc1c[nH]c2ccccc12)C(=O)N[C@@H](CC(C)C)C(=O)N[C@H](C(=O)N[C@@H](CCCNC(=N)N)C(=O)NCC(=O)N[C@@H](CCCNC(=N)N)C(=O)NCC(=O)O)C(C)C)[C@@H](C)CC)C(=O)O` [Liraglutide], the “proportion, Abdominal pain” value ([2]; Supplementary Fig. 21) is reported as 0.02341, the “proportion, Adenocarcinoma pancreas” value ([2]; Supplementary Fig. 21, ADR_TERM Adenocarcinoma pancreas) is reported as 0.01752 and the “proportion, Eructation” value ([2]; Supplementary Fig. 21) is reported as 0.03019. For the same molecule, the “proportion, Nausea” value ([2]; Supplementary Fig. 21) was 0.07705, the “proportion, Pancreatic disease” value [2, 4] was 0.08817 and the “proportion, Pancreatic disease” value [2, 5] was 0.1539. For the same molecule, the “proportion, Pancreatic disease” value ([2]; Supplementary Fig. 21, second group (r20)) was 0.02656, the “proportion, Pancreatic disease” value [2, 6] was 0.5446 and the “proportion, Vomiting” value ([2]; Supplementary Fig. 21) was 0.03854.

For `CC[C@H](C)[C@H](NC(=O)[C@H](Cc1ccccc1)NC(=O)[C@H](CCC(=O)O)NC(=O)[C@H](CCCCNC(=O)COCCOCCNC(=O)COCCOCCNC(=O)CC[C@H](NC(=O)CCCCCCCCCCCCCCCCC(=O)O)C(=O)O)NC(=O)[C@H](C)NC(=O)[C@H](C)NC(=O)[C@H](CCC(N)=O)NC(=O)CNC(=O)[C@H](CCC(=O)O)NC(=O)[C@H](CC(C)C)NC(=O)[C@H](Cc1ccc(O)cc1)NC(=O)[C@H](CO)NC(=O)[C@H](CO)NC(=O)[C@@H](NC(=O)[C@H](CC(=O)O)NC(=O)[C@H](CO)NC(=O)[C@@H](NC(=O)[C@H](Cc1ccccc1)NC(=O)[C@@H](NC(=O)CNC(=O)[C@H](CCC(=O)O)NC(=O)C(C)(C)NC(=O)[C@@H](N)Cc1cnc[nH]1)[C@@H](C)O)[C@@H](C)O)C(C)C)C(=O)N[C@@H](C)C(=O)N[C@@H](Cc1c[nH]c2ccccc12)C(=O)N[C@@H](CC(C)C)C(=O)N[C@H](C(=O)N[C@@H](CCCNC(=N)N)C(=O)NCC(=O)N[C@@H](CCCNC(=N)N)C(=O)NCC(=O)O)C(C)C` [Semaglutide], the “pancreatitis reports, in words” value ([3]; FAERS) is given as “lower incidence of pancreatitis”, the “logLR, diabetic ketoacidosis” value [3, 7] is given as 101.6 and the “logLR, diabetic retinopathy” value [3, 7] is given as 83.01. The “logLR, abdominal pain” value [3, 8] was 80.54, the “logLR, diarrhoea” value [3, 8] was 91.4 and the “logLR, eructation” value [3, 8] was 76.22. The “logLR, gastrointestinal disorder” value [3, 8] was 66.93, the “logLR, nausea” value [3, 8] was 351 and the “logLR, pancreatic carcinoma” value [3, 8] was 37.15. For the same molecule, the “logLR, pancreatitis” value [3, 8] was 599.6, the “logLR, pancreatitis acute” value [3, 8] was 54.4 and the “logLR, vomiting” value [3, 8] was 332.8. The “logLR, decreased appetite” value ([3]; SOC General disorders and administration site conditions, FAERS via Open Targets) was 42.19, the “logLR, blood glucose increased” value [3, 9] was 43.39 and the “logLR, glycosylated haemoglobin increased” value [3, 9] was 60.95. The “logLR, heart sounds” value [3, 9] was 49.27, the “logLR, lipase increased” value [3, 9] was 49.97 and the “logLR, weight decreased” value [3, 9] was 122.9. For the same molecule, the “logLR, dehydration” value [3, 10] was 53.42, the “logLR, euglycaemic diabetic ketoacidosis” value [3, 10] was 71.84 and the “logLR, retinopathy” value [3, 10] was 95.38. The “logLR, acute kidney injury” value ([3]; SOC Renal and urinary disorders, FAERS via Open Targets) was 39.07, the “logLR, prolonged expiration” value ([3]; SOC Respiratory disorders, FAERS via Open Targets) was 36.95 and the logLR ([2]; Endocrine disorders: diabetic ketoacidosis) was 101.6. For the same molecule, the logLR ([2]; Endocrine disorders: diabetic retinopathy) was 83.01, the logLR ([2]; Gastrointestinal disorders: abdominal pain) was 80.54 and the logLR ([2]; Gastrointestinal disorders: diarrhoea) was 91.4. It also gave a logLR ([2]; Gastrointestinal disorders: eructation) of 76.22, a logLR ([2]; Gastrointestinal disorders: gastrointestinal disorder) of 66.93 and a logLR ([2]; Gastrointestinal disorders: nausea) of 351. The logLR ([2]; Gastrointestinal disorders: pancreatic carcinoma) was 37.15, the logLR ([2]; Gastrointestinal disorders: pancreatitis) was 599.6 and the logLR ([2]; Gastrointestinal disorders: pancreatitis acute) was 54.4. For the same molecule, the logLR ([2]; Gastrointestinal disorders: vomiting) was 332.8, the logLR ([2]; General disorders and administration site conditions: decreased appetite) was 42.19 and the logLR ([2]; Investigations: blood glucose increased) was 43.39. For the same molecule, the logLR ([2]; Investigations: glycosylated haemoglobin increased) was 60.95, the logLR ([2]; Investigations: heart sounds) was 49.27 and the logLR ([2]; Investigations: lipase increased) was 49.97. For the same molecule, the logLR ([2]; Investigations: weight decreased) was 122.9, the logLR ([2]; Metabolism and nutrition disorders: dehydration) was 53.42 and the logLR ([2]; Metabolism and nutrition disorders: euglycaemic diabetic ketoacidosis) was 71.84. For the same molecule, the logLR ([2]; Metabolism and nutrition disorders: retinopathy) was 95.38, the logLR ([2]; Renal and urinary disorders: acute kidney injury) was 39.07 and the logLR ([2]; Respiratory disorders: prolonged expiration) was 36.95. For the same molecule, the “proportion, Abdominal pain” value ([2]; Supplementary Fig. 21) was 0.04766, the “proportion, Diarrhoea” value ([2]; Supplementary Fig. 21, ADR_TERM Diarrhoea) was 0.05408 and the “proportion, Eructation” value ([2]; Supplementary Fig. 21) was 0.0451. The “proportion, Gastrointestinal disorder” value ([2]; Supplementary Fig. 21, ADR_TERM Gastrointestinal disorder) was 0.03961, the “proportion, Nausea” value ([2]; Supplementary Fig. 21) was 0.2077 and the “proportion, Pancreatic disease” value [2, 4] was 0.02198. For the same molecule, the “proportion, Pancreatic disease” value [2, 5] was 0.03219, the “proportion, Pancreatic disease” value [2, 6] was 0.3548 and the “proportion, Vomiting” value ([2]; Supplementary Fig. 21) was 0.1969.
